From US9095598B2, “Stilbenoid derivatives and their uses” (The Board of Trustees of the University of Arkansas, priority 2010, dated 2015)
Like-named read-outs stand apart in the source and are kept apart here.

Assays:
CB1 receptors [1] = molecular target: T1, CB1 receptors (Mus musculus, UniProt P47746); assay type: biochemical
T1 construct: from tissue; host or cells: mouse brain membranes

human recombinant UGT1A1 [2] = molecular target: T2, human recombinant UGT1A1 (Homo sapiens, UniProt P22309); test: Glucuronidation by recombinant human UGT1A1 (activity screen and kinetic constants); conditions: for glucuronide formation, in words (FIG. 1): substrate 250 μM, UDP-GlcUA 4 mM; for Kinetics (model): — = No activity
T2 sequence (P22309 26-533): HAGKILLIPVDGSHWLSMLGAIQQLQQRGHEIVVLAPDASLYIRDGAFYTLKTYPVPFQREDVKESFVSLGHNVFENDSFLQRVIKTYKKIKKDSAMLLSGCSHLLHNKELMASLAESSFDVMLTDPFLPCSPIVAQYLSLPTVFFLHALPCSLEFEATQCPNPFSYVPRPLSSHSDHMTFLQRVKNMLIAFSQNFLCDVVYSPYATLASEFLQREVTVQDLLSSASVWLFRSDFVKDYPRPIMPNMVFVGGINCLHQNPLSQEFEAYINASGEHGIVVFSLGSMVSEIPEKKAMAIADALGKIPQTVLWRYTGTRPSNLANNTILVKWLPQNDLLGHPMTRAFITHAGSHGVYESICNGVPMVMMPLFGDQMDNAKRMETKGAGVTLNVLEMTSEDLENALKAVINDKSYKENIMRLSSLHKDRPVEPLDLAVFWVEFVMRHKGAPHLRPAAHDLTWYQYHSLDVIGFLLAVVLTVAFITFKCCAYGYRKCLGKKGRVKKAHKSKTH
Experimental: (§1) Eight human recombinant UGT1A isoforms (UGT1A1, 1A3, 1A4, 1A6, 1A7, 1A8, 1A9, and 1A10; 5 μg) expressed as His-tag proteins in baculovirus-infected Sf9 insect cells and human liver microsomes (from one donor; HL2; 50 μg) and human intestinal microsomes (from two donors; HI36 and HI41; 50 μg) were evaluated for their ability to glucuronidate these four compounds. The concentrations of the substrate and co-substrate (i.e., UDP-GlcUA) were 250 μM and 4 mM, respectively. Glucuronidation products were analyzed by HPLC and LCMS/MS.
(§2) The kinetic constants of the glucuronidation reactions using recombinant human UGT1A1 and UGT1A10 were determined by measuring the enzyme activity in the presence of increasing concentrations of substrate (see FIG. 2).

[3] = molecular target: T3, human recombinant UGT1A10 (Homo sapiens, UniProt Q9HAW8); test: Glucuronidation by recombinant human UGT1A10 (activity screen and kinetic constants); conditions: for glucuronide formation, in words (FIG. 1): substrate 250 μM, UDP-GlcUA 4 mM
T3 sequence (Q9HAW8 26-530): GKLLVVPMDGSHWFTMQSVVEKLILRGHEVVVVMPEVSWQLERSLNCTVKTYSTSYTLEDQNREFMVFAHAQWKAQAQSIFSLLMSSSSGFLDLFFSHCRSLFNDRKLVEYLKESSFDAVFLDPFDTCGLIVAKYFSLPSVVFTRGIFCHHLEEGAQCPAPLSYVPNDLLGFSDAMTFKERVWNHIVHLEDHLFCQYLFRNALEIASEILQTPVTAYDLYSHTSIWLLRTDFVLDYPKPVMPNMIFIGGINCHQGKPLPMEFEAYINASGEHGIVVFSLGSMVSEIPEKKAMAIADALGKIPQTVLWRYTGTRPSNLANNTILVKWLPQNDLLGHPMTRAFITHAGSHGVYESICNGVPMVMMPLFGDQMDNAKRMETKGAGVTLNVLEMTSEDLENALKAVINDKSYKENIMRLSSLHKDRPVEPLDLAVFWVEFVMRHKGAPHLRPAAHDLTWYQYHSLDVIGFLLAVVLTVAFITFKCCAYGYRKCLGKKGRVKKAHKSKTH
Experimental: as §1, §2

CB1 receptors [4] = assay type: biochemical, mouse; conditions: 10 μM, 30 min at 30° C.
[5] = molecular target: T4, CB1 receptors (mouse brain-mCB1 membranes) (Mus musculus, UniProt P47746); test: CB1 receptor binding, mouse brain membranes, 3H-CP 55,940 displacement
T4 construct: from tissue; host or cells: mouse brain membranes
Experimental: (§3) Membrane preparations were prepared from mouse brain to examine CB1 binding. For CB2 binding, membrane preparations were prepared from CHO cells stably transformed with human CB2.

human CB2 = molecular target: T5, human CB2 (Homo sapiens, UniProt P34972); test: CB2 receptor binding, CHO-hCB2 membranes, 3H-CP 55,940 displacement; conditions: 0.2 nM 3H-CP 55,940, 90 min room temperature
T5 construct: expressed in transfected cells; host or cells: CHO cells, stably transformed; membrane preparations
Experimental: as §3

[6] = molecular target: T3, human recombinant UGT1A10; conditions: 250 μM
Experimental: as §1, §2

human recombinant UGT1A1 [7] = molecular target: T2, human recombinant UGT1A1; conditions: 250 μM
Experimental: as §1, §2

[8] = tested on: sepsis-induced renal injury (CLP); test: Murine cecal ligation and puncture (CLP) model of sepsis-induced renal injury; assay type: in vivo, mice; conditions: 30 mg/kg i.p. 30 min prior to and 6 hr post CLP; 18 hr post CLP
From the text: Control (sham) mice underwent surgery but not CLP. Each treatment group contained 4-5 mice. Renal ONOO^− generation (rhodamine fluorescence) and renal peritubular capillary perfusion were quantified using intravital video microscopy (IVVM) on anesthetized mice in each of the treatment groups.

[9] = product 4′-glucuronide (4′G), USI = substrate inhibition

T1 sequence (P47746 whole entry): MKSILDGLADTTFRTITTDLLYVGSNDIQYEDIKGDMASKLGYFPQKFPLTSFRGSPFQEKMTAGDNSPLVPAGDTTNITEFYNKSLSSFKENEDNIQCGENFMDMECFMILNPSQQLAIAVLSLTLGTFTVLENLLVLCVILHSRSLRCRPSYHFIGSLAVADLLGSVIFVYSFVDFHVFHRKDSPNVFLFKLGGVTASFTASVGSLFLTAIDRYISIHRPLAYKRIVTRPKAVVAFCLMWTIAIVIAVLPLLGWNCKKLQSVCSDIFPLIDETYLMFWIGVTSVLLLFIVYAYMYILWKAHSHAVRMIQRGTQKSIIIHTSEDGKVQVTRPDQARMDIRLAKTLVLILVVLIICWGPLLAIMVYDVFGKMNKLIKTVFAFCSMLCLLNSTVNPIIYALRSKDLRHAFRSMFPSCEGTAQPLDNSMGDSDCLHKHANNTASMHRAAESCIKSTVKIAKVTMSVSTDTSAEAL
T5 sequence (P34972 whole entry): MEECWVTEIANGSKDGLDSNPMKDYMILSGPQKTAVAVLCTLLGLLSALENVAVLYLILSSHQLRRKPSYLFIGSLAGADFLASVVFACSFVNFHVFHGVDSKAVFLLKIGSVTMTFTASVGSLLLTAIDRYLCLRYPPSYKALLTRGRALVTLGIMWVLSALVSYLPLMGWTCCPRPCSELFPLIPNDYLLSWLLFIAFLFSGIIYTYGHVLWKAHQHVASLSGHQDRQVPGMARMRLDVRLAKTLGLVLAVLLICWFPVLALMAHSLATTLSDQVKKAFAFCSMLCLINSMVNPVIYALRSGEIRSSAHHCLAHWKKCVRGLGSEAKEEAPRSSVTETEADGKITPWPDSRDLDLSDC
T4 sequence (P47746 whole entry): as the sequence (P47746 whole entry) above

| Molecule | glucuronide formation, in words (FIG. 1) (human recombinant UGT1A1 [2]) | Kinetics (model) [3, 9] | glucuronide formation, in words (FIG. 1) [3] | effect on basal G-protein activity, in words (CB1 receptors [4]) | Ki (human CB2) | Kinetics (model) (human recombinant UGT1A1 [2]; product 3-glucuronide (3G)) | Kinetics (model) (human recombinant UGT1A1 [2]; product 4′-glucuronide (4′G)) | further results |
| --- | --- | --- | --- | --- | --- | --- | --- | --- |
| CCCCCCC(C)(C)c1ccc([C@@H]2C[C@H](O)CC[C@H]2CCCO)c(O)c1 [CP-55,940, reference compound] | – | – | – | – | – | – | – | effect on G-protein activity, in words (CB1 receptors [1]; 1 μM, 30 min at 30° C.): stimulated; maximal response produced by CP-55,940 (CB1 receptors [1]; CP-55,940 alone): 0.34+/−0.03 pmole/mg protein |
| trans-arachidin-1 [tA1] | completely blocked formation of any Gluc | substrate inhibition kinetics and USI | formation of the 3-O-Gluc | markedly reduced | 12.6 ± 1.7 µM | – | – | increase (shift-to-the-right) in the ED50 of CP-55,940 (CB1 receptors [1]; 10 μM tA-1): 7 fold; maximal response produced by CP-55,940 in presence of test compound (CB1 receptors [1]; with tA-1 (10 μM)): 0.22+/−0.04 pmole/mg protein; enhancement of binding affinity for CB1 (isoprenyl plus additional hydroxyl group) [5]: 2 fold |
| CC(C)/C=C/c1c(O)cc(/C=C/c2ccc(O)cc2)cc1O [tA3, trans-arachidin-3] | significant inhibition of 3-O-glucuronidation | USI | significant inhibition of 3-O-glucuronidation | little effect | 11.3 ± 0.6 µM | M-M | M-M | Kinetics (model) ([3]; product 4′-glucuronide (4′G), USI = substrate inhibition, listed as 1A3): substrate inhibition kinetics |
| CC1=CC[C@@H]2[C@@H](C1)c1c(O)cc(CC#CCCCNS(C)(=O)=O)cc1OC2(C)C [O-2050, reference compound] | – | – | – | – | – | – | – | effect of co-incubation on CP-55,940 stimulation and AM251 inhibition of G-protein activity (CB1 receptors [1]; data not shown): blocked |
| Oc1ccc(/C=C/c2cc(O)cc(O)c2)cc1 [tRes, trans-resveratrol] | – | – | – | little effect | 65.5 ± 12 µM | – | – | glucuronide formation, in words (FIG. 1) [6]: glucuronidated to 3-O— and 4′-O-Glucs; glucuronide formation, in words (FIG. 1) (human recombinant UGT1A1 [7]): glucuronidated to 3-O— and 4′-O-Glucs; RNS generation in the kidney (rhodamine fluorescence, IVVM) [8]: blocked RNS generation in the kidney; renal peritubular capillary perfusion (IVVM) [8]: preserved renal capillary perfusion |
| Oc1cc(O)cc(/C=C/c2ccc(O)c(O)c2)c1 [tPice, trans-piceatannol] | – | Hill | – | markedly reduced | – | M-M | M-M | Kinetics (model) ([3]; product 3-glucuronide (3G), — = No activity): M-M |
